Test [1] relates to SH-SY5Y. Kind of test: Neuroprotective activity against H2O2-induced neurotoxicity in human SH-SY5Y cells assessed as cell survival at 1 uM incubated for 2 hrs before H2O2 challenge measured after 24 hrs by MTT assay. Format: functional. The settings on record: for viability at 1 µM: Homo sapiens, SH-SY5Y, read-out: Activity. On the technique in general: Formazan colour is commonly taken as a measure of viable cells.

For test [2], the system named is SH-SY5Y. Kind of test: Neuroprotective activity against H2O2-induced neurotoxicity in human SH-SY5Y cells assessed as cell survival at 10 uM incubated for 2 hrs before H2O2 challenge measured after 24 hrs by MTT assay. Format: functional. The settings on record: for viability at 10 µM: Homo sapiens, SH-SY5Y, read-out: Activity.

`C/C=C(/C)C(=O)O[C@H]1c2cc(OC)c(OC)c(OC)c2-c2c(cc3c(c2OC)OCO3)[C@H](OC(=O)CCC)[C@H](C)[C@@H]1C` [ANANOLIGNAN N]: the viability at 1 µM in the test on SH-SY5Y [1] is 75%. In the test on SH-SY5Y [2], the viability at 10 µM worked out at 66.8%.
Turning to `COc1cc2c(c(OC)c1OC)-c1c(cc3c(c1OC)OCO3)[C@@H](OC(C)=O)[C@@H](C)[C@H](C)C2=O` [ANANOLIGNAN B], the viability at 1 µM with SH-SY5Y [1] is 59.7%. Further, the viability at 10 µM with SH-SY5Y [2] amounted to 69.6%.
In the same order, the values of `C/C=C(/C)C(=O)O[C@H]1c2cc(OC)c(OC)c(OC)c2-c2c(cc3c(c2OC)OCO3)[C@H](OC(=O)C(C)C)[C@H](C)[C@@H]1C` [ANANOLIGNAN M] are 74% and 64.5%.
In the same order, the values of `COc1cc2c(c(OC)c1OC)-c1c(cc3c(c1OC)OCO3)[C@H](O)[C@@H](C)[C@@H](C)C2` [YUNNANKADSURIN B] are 41.7% and 60.1%.
Take `COc1cc2c(c(OC)c1OC)-c1c(cc3c(c1OC)OCO3)[C@H](OC(C)=O)[C@H](C)[C@H](C)C2` (stereo in doubt; 16) [KADSURIN]: the values for the Activity in the test with SH-SY5Y [1] and in the test on SH-SY5Y [2] were 56.3% and 49.7%, respectively.
With `C/C=C(\C)C(=O)O[C@H]1c2cc(OC)c(OC)c(OC)c2-c2c(cc3c(c2OC)OCO3)[C@H](OC(C)=O)[C@H](C)[C@@H]1C` [ANANOLIGNAN L], the viability at 1 µM with SH-SY5Y [1] was determined as 79.2%. In the test with SH-SY5Y [2], the viability at 10 µM amounted to 66.9%.
On to `CCCC(=O)O[C@H]1c2cc3c(c(OC)c2-c2c(cc(OC)c(OC)c2OC)[C@H](OC(C)=O)[C@@H](C)[C@H]1C)OCO3` [ANANOLIGNAN I], for which the viability at 1 µM in the test with SH-SY5Y [1] is 61.1%. Further, the viability at 10 µM in the test on SH-SY5Y [2] stood at 60.1%.
In the same order, the values of `COc1cc2c(c(OC)c1OC)-c1c(cc3c(c1OC)OCO3)[C@H](OC(C)=O)[C@H](C)[C@H](C)[C@@H]2O` [ANANOLIGNAN D] are 64.3% and 63%.
In the case of `COc1cc2c(c(OC)c1OC)-c1c(cc3c(c1OC)OCO3)[C@H](O)[C@H](C)[C@H](C)[C@H]2OC(C)=O` [ANANOLIGNAN E], the viability at 1 µM with SH-SY5Y [1] came to 62%. Moreover, the viability at 10 µM with SH-SY5Y [2] was determined as 56.3%.
In the same order, the values of `C/C=C(\C)C(=O)O[C@H]1c2cc(OC)c(OC)c(OC)c2-c2c(cc3c(c2OC)OCO3)[C@H](O)[C@H](C)[C@@H]1C` [ANANOSIN A] are 66.4% and 68.2%.
For `COc1cc2c(c(OC)c1OC)-c1c(cc3c(c1OC)OCO3)[C@H](OC(C)=O)[C@H](C)[C@H](C)[C@H]2OC(C)=O` [ANANOLIGNAN F] the same measures were 90% and 88.6%.
For `CCC(C)C(=O)O[C@H]1c2cc3c(c(OC)c2-c2c(cc(OC)c(OC)c2OC)[C@H](OC(C)=O)[C@@H](C)[C@H]1C)OCO3` (stereo partly drawn) [ANANOLIGNAN J] the same measures were 52.2% and 55.1%.
`COc1cc2c(c(OC)c1OC)-c1c(cc3c(c1OC)OCO3)[C@H](O)[C@H](C)[C@H](C)[C@@H]2O` [ANANOLIGNAN C]: in the test on SH-SY5Y [1], the viability at 1 µM came out at 57.7%. In the test on SH-SY5Y [2], the viability at 10 µM worked out at 59.6%.
Regarding `C/C=C(/C)C(=O)O[C@H]1c2cc(OC)c(OC)c(OC)c2-c2c(cc3c(c2OC)OCO3)[C@H](OC(C)=O)[C@H](C)[C@@H]1C` [INTERIOTHERIN C], in the test with SH-SY5Y [1], the viability at 1 µM came out at 45.7%. Further, the viability at 10 µM in the test on SH-SY5Y [2] came out at 53.6%.
For `CCC(=O)O[C@H]1c2cc3c(c(OC)c2-c2c(cc(OC)c(OC)c2OC)[C@H](OC(C)=O)[C@@H](C)[C@H]1C)OCO3` [ANANOLIGNAN G] the same measures were 57.7% and 56.7%.
In the same order, the values of `COc1cc2c(c(OC)c1OC)-c1c(cc3c(c1OC)OCO3)[C@H](OC(=O)c1ccccc1)[C@H](C)[C@H](C)[C@H]2OC(C)=O` [ANANOLIGNAN K] are 68.9% and 71.4%.
For `COc1cc2c(c(OC)c1OC)-c1c(cc3c(c1OC)OCO3)[C@H](OC(C)=O)[C@H](C)[C@H](C)C2` (stereo in doubt; 1) [KADSURIN] the same measures were 58.9% and 51.7%.
As for `COc1cc2c(c(OC)c1OC)-c1c(cc3c(c1OC)OCO3)[C@H](O)[C@H](C)[C@H](C)C2` [ISOGOMISIN O], the viability at 1 µM with SH-SY5Y [1] turned out to be 56.9%. For the same compound, the viability at 10 µM in the test with SH-SY5Y [2] was 56.7%.
Take `COc1cc2c(c(OC)c1OC)-c1c(cc3c(c1OC)OCO3)[C@H](OC(=O)C(C)C)[C@H](C)[C@H](C)[C@H]2OC(C)=O` [ANANOLIGNAN H]: the viability at 1 µM in the test with SH-SY5Y [1] was determined as 64.1%. The viability at 10 µM in the test on SH-SY5Y [2] stood at 63.9%.

Source of the values: ChEMBL document CHEMBL1781894, “Dibenzocyclooctadiene lignans with antineurodegenerative potential from Kadsura ananosma” (2011).
